ChEMBL document CHEMBL1127134, “Synthesis and antibacterial activity of (1R,5R,6R)-2-tert-butyl-6-(1-hydroxyethyl)oxapenem-3-carboxylic acid” (1993)
In brackets after ≈: the same amount, converted by molar mass.

Legend:
Staphylococcus aureus [1] = assay: Minimum inhibitory concentration required for the antibacterial activity against Staphylococcus aureus 13N Munchen; assay type: functional
Staphylococcus aureus [2] = assay: Minimum inhibitory concentration required for the antibacterial activity against Staphylococcus aureus 1756; assay type: functional; conditions: Staphylococcus aureus; read-out: MIC
Staphylococcus aureus [3] = assay: Minimum inhibitory concentration required for the antibacterial activity against Staphylococcus aureus 21b Belgium; assay type: functional
Staphylococcus aureus [4] = assay: Minimum inhibitory concentration required for the antibacterial activity against Staphylococcus aureus 25085; assay type: functional
Staphylococcus aureus [5] = assay: Minimum inhibitory concentration required for the antibacterial activity against Staphylococcus aureus 25463; assay type: functional
Staphylococcus aureus [6] = assay: Minimum inhibitory concentration required for the antibacterial activity against Staphylococcus aureus 25464; assay type: functional
Staphylococcus aureus [7] = assay: Minimum inhibitory concentration required for the antibacterial activity against Staphylococcus aureus 25470; assay type: functional
Staphylococcus aureus [8] = assay: Minimum inhibitory concentration required for the antibacterial activity against Staphylococcus aureus 25697; assay type: functional
Staphylococcus aureus [9] = assay: Minimum inhibitory concentration required for the antibacterial activity against Staphylococcus aureus 25768; assay type: functional
Staphylococcus aureus [10] = assay: Minimum inhibitory concentration required for the antibacterial activity against Staphylococcus aureus 41h Belgium; assay type: functional
Staphylococcus aureus [11] = assay: Minimum inhibitory concentration required for the antibacterial activity against Staphylococcus aureus 4978 Israel; assay type: functional
Staphylococcus aureus [12] = assay: Minimum inhibitory concentration required for the antibacterial activity against Staphylococcus aureus 77 Innsbruck; assay type: functional
Staphylococcus aureus [13] = assay: Minimum inhibitory concentration required for the antibacterial activity against Staphylococcus aureus 79B Innsbruck; assay type: functional
Staphylococcus aureus [14] = assay: Minimum inhibitory concentration required for the antibacterial activity against Staphylococcus aureus 86 Innsbruck; assay type: functional
Staphylococcus aureus [15] = assay: Minimum inhibitory concentration required for the antibacterial activity against Staphylococcus aureus 90 Innsbruck; assay type: functional
Staphylococcus aureus [16] = assay: Minimum inhibitory concentration required for the antibacterial activity against Staphylococcus aureus 17N Munchen; assay type: functional
Staphylococcus aureus [17] = assay: Minimum inhibitory concentration required for the antibacterial activity against Staphylococcus aureus 48N Munchen; assay type: functional
Staphylococcus aureus [18] = assay: Minimum inhibitory concentration for the antibacterial activity against Staphylococcus aureus 48N Munchen; assay type: functional
Bacteroides fragilis [19] = assay: Minimum inhibitory concentration required for the antibacterial activity against Bacillus fragilis 4891/91 Kr; assay type: functional
Bacteroides fragilis [20] = assay: Minimum inhibitory concentration required for the antibacterial activity against Bacillus fragilis DSM 2151; assay type: functional
Bacteroides fragilis [21] = assay: Minimum inhibitory concentration required for the antibacterial activity against Bacillus fragilis ES 25; assay type: functional
Bacteroides fragilis [22] = assay: Minimum inhibitory concentration required for the antibacterial activity against Bacillus fragilis GA I - 0558 Japan; assay type: functional
Bacteroides fragilis [23] = assay: Minimum inhibitory concentration required for the antibacterial activity against Bacillus fragilis Kr 1 TV; assay type: functional
Bacteroides fragilis [24] = assay: Minimum inhibitory concentration required for the antibacterial activity against Bacillus fragilis Kr II; assay type: functional
Bacteroides fragilis [25] = assay: Minimum inhibitory concentration required for the antibacterial activity against Bacillus fragilis L 1168 Italien; assay type: functional
[26] = system: Prevotella melaninogenica; assay: Minimum inhibitory concentration required for the antibacterial activity against Bacillus melaninogenicus Heidelberg; assay type: functional
[27] = system: Prevotella melaninogenica; assay: Minimum inhibitory concentration required for the antibacterial activity against Bacillus melaninogenicus Kr; assay type: functional
Bacteroides ovatus = assay: Minimum inhibitory concentration required for the antibacterial activity against Bacillus ovatus Heidelberg; assay type: functional, bacillus ovatu
[28] = system: Parabacteroides distasonis; assay: Minimum inhibitory concentration required for the antibacterial activity against Bacillus distasonis Heidelberg; assay type: functional
[29] = system: Parabacteroides distasonis; assay: Minimum inhibitory concentration required for the antibacterial activity against Bacillus distasonis Kr; assay type: functional
Bacteroides fragilis [30] = assay: Minimum inhibitory concentration required for the antibacterial activity against Bacillus fragilis 010848; assay type: functional
Bacteroides fragilis [31] = assay: Minimum inhibitory concentration required for the antibacterial activity against Bacillus fragilis 06688; assay type: functional
Bacteroides fragilis [32] = assay: Minimum inhibitory concentration required for the antibacterial activity against Bacillus fragilis 1560 I/82; assay type: functional
Bacteroides fragilis [33] = assay: Minimum inhibitory concentration required for the antibacterial activity against Bacillus fragilis 2034/35 Kr 43; assay type: functional
Bacteroides fragilis [34] = assay: Minimum inhibitory concentration required for the antibacterial activity against Bacillus fragilis 4661 Kr; assay type: functional
[35] = system: Bacteroides thetaiotaomicron; assay: Minimum inhibitory concentration required for the antibacterial activity against Bacillus thetaiotaomicron 235 Munchen; assay type: functional
[36] = system: Bacteroides thetaiotaomicron; assay: Minimum inhibitory concentration required for the antibacterial activity against Bacillus thetaiotaomicron DSM 2079; assay type: functional
Phocaeicola vulgatus = assay: Minimum inhibitory concentration required for the antibacterial activity against Bacillus valgatus Kr III; assay type: functional
Clostridium perfringens [37] = assay: Minimum inhibitory concentration required for the antibacterial activity against Clostridium perfringens 1024027; assay type: functional
Clostridium perfringens [38] = assay: Minimum inhibitory concentration required for the antibacterial activity against Clostridium perfringens 24071; assay type: functional
Clostridium perfringens [39] = assay: Minimum inhibitory concentration required for the antibacterial activity against Clostridium perfringens 24072; assay type: functional
Clostridium perfringens [40] = assay: Minimum inhibitory concentration required for the antibacterial activity against Clostridium perfringens DSM 756; assay type: functional
Clostridium butyricum = assay: Minimum inhibitory concentration required for the antibacterial activity against Clostridium butyricum; assay type: functional
Thomasclavelia ramosa = assay: Minimum inhibitory concentration required for the antibacterial activity against Clostridium ramosum DSM 1402; assay type: functional
Clostridium sporogenes = assay: Minimum inhibitory concentration required for the antibacterial activity against Clostridium sporogenes; assay type: functional
Fusobacterium nucleatum = assay: Minimum inhibitory concentration required for the antibacterial activity against Fusobacterium nucleatum DSM 20482; assay type: functional
[41] = system: Peptostreptococcus anaerobius; assay: Minimum inhibitory concentration required for the antibacterial activity against Peptostrept. anaer. Kr I; assay type: functional
[42] = system: Peptostreptococcus anaerobius; assay: Minimum inhibitory concentration required for the antibacterial activity against Peptostrept. anaer. Kr II; assay type: functional
[43] = system: Peptostreptococcus anaerobius; assay: Minimum inhibitory concentration required for the antibacterial activity against Peptostrept. anaer. 222 I/82; assay type: functional
[44] = system: Peptostreptococcus anaerobius; assay: Minimum inhibitory concentration required for the antibacterial activity against Peptostrept. anaer. DSM 20357; assay type: functional
[45] = system: Peptoniphilus asaccharolyticus; assay: Minimum inhibitory concentration required for the antibacterial activity against Peptococcus asacchar. DSM 20463; assay type: functional
Anaerococcus prevotii = assay: Minimum inhibitory concentration required for the antibacterial activity against Peptococcus prevotii DSM 20548; assay type: functional
[46] = system: Fusobacterium necrophorum; assay: Minimum inhibitory concentration required for the antibacterial activity against Sphaerophorus necrophorus Kr; assay type: functional
Clostridium septicum = assay: Minimum inhibitory concentration required for the antibacterial activity against Clostridium septicum; assay type: functional

## Cc1onc(-c2ccccc2)c1C(=O)N[C@@H]1C(=O)N2[C@@H]1SC(C)(C)[C@@H]2C(=O)O [OXACILLIN]
Staphylococcus aureus [1]
  MIC: > 100 µg/mL
Staphylococcus aureus [2]
  MIC: 50 µg/mL (≈ 125 µM)
Staphylococcus aureus [3]
  MIC: > 100 µg/mL
Staphylococcus aureus [4]
  MIC: 3.12 µg/mL (≈ 7.77 µM)
Staphylococcus aureus [5]
  MIC: 1.56 µg/mL (≈ 3.89 µM)
Staphylococcus aureus [6]
  MIC: > 100 µg/mL
Staphylococcus aureus [7]
  MIC: 100 µg/mL (≈ 249 µM)
Staphylococcus aureus [8]
  MIC: 1.56 µg/mL (≈ 3.89 µM)
Staphylococcus aureus [9]
  MIC: 6.25 µg/mL (≈ 15.6 µM)
Staphylococcus aureus [10]
  MIC: > 100 µg/mL
Staphylococcus aureus [11]
  MIC: ≤ 0.78 µg/mL
Staphylococcus aureus [12]
  MIC: 100 µg/mL (≈ 249 µM)
Staphylococcus aureus [13]
  MIC: 50 µg/mL (≈ 125 µM)
Staphylococcus aureus [14]
  MIC: 100 µg/mL (≈ 249 µM)
Staphylococcus aureus [15]
  MIC: > 100 µg/mL
Staphylococcus aureus [16]
  MIC: 1.56 µg/mL (≈ 3.89 µM)
Staphylococcus aureus [17]
  MIC: ≤ 0.78 µg/mL

## COc1cccc(OC)c1C(=O)N[C@@H]1C(=O)N2[C@@H]1SC(C)(C)[C@@H]2C(=O)O [METHICILLIN]
Staphylococcus aureus [1]
  MIC: 50 µg/mL (≈ 131 µM)
Staphylococcus aureus [2]
  MIC: 50 µg/mL (≈ 131 µM)
Staphylococcus aureus [3]
  MIC: > 100 µg/mL
Staphylococcus aureus [4]
  MIC: 6.25 µg/mL (≈ 16.4 µM)
Staphylococcus aureus [5]
  MIC: 1.56 µg/mL (≈ 4.1 µM)
Staphylococcus aureus [6]
  MIC: > 100 µg/mL
Staphylococcus aureus [7]
  MIC: > 100 µg/mL
Staphylococcus aureus [8]
  MIC: 6.25 µg/mL (≈ 16.4 µM)
Staphylococcus aureus [9]
  MIC: 6.25 µg/mL (≈ 16.4 µM)
Staphylococcus aureus [10]
  MIC: > 100 µg/mL
Staphylococcus aureus [11]
  MIC: ≤ 0.78 µg/mL
Staphylococcus aureus [12]
  MIC: 50 µg/mL (≈ 131 µM)
Staphylococcus aureus [13]
  MIC: 25 µg/mL (≈ 65.7 µM)
Staphylococcus aureus [14]
  MIC: 25 µg/mL (≈ 65.7 µM)
Staphylococcus aureus [15]
  MIC: 50 µg/mL (≈ 131 µM)
Staphylococcus aureus [18]
  MIC: 6.25 µg/mL (≈ 16.4 µM)
Staphylococcus aureus [16]
  MIC: 3.12 µg/mL (≈ 8.2 µM)

## CCn1cc(C(=O)O)c(=O)c2cc(F)c(N3CCNCC3)cc21 [NORFLOXACIN]
Bacteroides fragilis [19]
  MIC: > 16 µg/mL
Bacteroides fragilis [20]
  MIC: > 16 µg/mL
Bacteroides fragilis [21]
  MIC: > 16 µg/mL
Bacteroides fragilis [22]
  MIC: > 16 µg/mL
Bacteroides fragilis [23]
  MIC: > 16 µg/mL
Bacteroides fragilis [24]
  MIC: > 16 µg/mL
Bacteroides fragilis [25]
  MIC: > 16 µg/mL
[26]
  MIC: > 16 µg/mL
[27]
  MIC: 16 µg/mL (≈ 50.1 µM)
Bacteroides ovatus
  MIC: > 16 µg/mL
[28]
  MIC: > 16 µg/mL
[29]
  MIC: > 16 µg/mL
Bacteroides fragilis [30]
  MIC: > 16 µg/mL
Bacteroides fragilis [31]
  MIC: > 16 µg/mL
Bacteroides fragilis [32]
  MIC: > 16 µg/mL
Bacteroides fragilis [33]
  MIC: > 16 µg/mL
Bacteroides fragilis [34]
  MIC: > 16 µg/mL
[35]
  MIC: > 16 µg/mL
[36]
  MIC: > 16 µg/mL
Phocaeicola vulgatus
  MIC: > 16 µg/mL
Clostridium perfringens [37]
  MIC: 2 µg/mL (≈ 6.26 µM)
Clostridium perfringens [38]
  MIC: 4 µg/mL (≈ 12.5 µM)
Clostridium perfringens [39]
  MIC: 4 µg/mL (≈ 12.5 µM)
Clostridium perfringens [40]
  MIC: > 16 µg/mL
Clostridium butyricum
  MIC: 16 µg/mL (≈ 50.1 µM)
Thomasclavelia ramosa
  MIC: > 16 µg/mL
Clostridium sporogenes
  MIC: 16 µg/mL (≈ 50.1 µM)
Fusobacterium nucleatum
  MIC: 16 µg/mL (≈ 50.1 µM)
[41]
  MIC: > 16 µg/mL
[42]
  MIC: 2 µg/mL (≈ 6.26 µM)
[43]
  MIC: > 16 µg/mL
[44]
  MIC: > 16 µg/mL
[45]
  MIC: 4 µg/mL (≈ 12.5 µM)
Anaerococcus prevotii
  MIC: > 16 µg/mL
[46]
  MIC: 2 µg/mL (≈ 6.26 µM)
Clostridium septicum
  MIC: 16 µg/mL (≈ 50.1 µM)

## CO[C@@]1(NC(=O)Cc2cccs2)C(=O)N2C(C(=O)O)=C(COC(N)=O)CS[C@@H]21 [CEFOXITIN]
Staphylococcus aureus [1]
  MIC: > 100 µg/mL
Staphylococcus aureus [2]
  MIC: 50 µg/mL (≈ 117 µM)
Staphylococcus aureus [3]
  MIC: ≤ 0.78 µg/mL
Staphylococcus aureus [4]
  MIC: 12.5 µg/mL (≈ 29.2 µM)
Staphylococcus aureus [5]
  MIC: 1.56 µg/mL (≈ 3.65 µM)
Staphylococcus aureus [6]
  MIC: 50 µg/mL (≈ 117 µM)
Staphylococcus aureus [7]
  MIC: > 100 µg/mL
Staphylococcus aureus [8]
  MIC: 12.5 µg/mL (≈ 29.2 µM)
Staphylococcus aureus [9]
  MIC: 12.5 µg/mL (≈ 29.2 µM)
Staphylococcus aureus [10]
  MIC: 1.56 µg/mL (≈ 3.65 µM)
Staphylococcus aureus [11]
  MIC: 1.56 µg/mL (≈ 3.65 µM)
Staphylococcus aureus [12]
  MIC: 25 µg/mL (≈ 58.5 µM)
Staphylococcus aureus [13]
  MIC: 25 µg/mL (≈ 58.5 µM)
Staphylococcus aureus [14]
  MIC: 12.5 µg/mL (≈ 29.2 µM)
Staphylococcus aureus [15]
  MIC: 100 µg/mL (≈ 234 µM)
Staphylococcus aureus [16]
  MIC: 12.5 µg/mL (≈ 29.2 µM)
Staphylococcus aureus [17]
  MIC: 6.25 µg/mL (≈ 14.6 µM)
